From patent publication US20110027785A1, “METHOD FOR DETERMINING SUSCEPTIBILITY OF INDIVIDUALS TO POLYPHENOLS” (CONOPCO, INC., D/B/A UNILEVER, priority 2009, published 2011)

Tested on: male participants
Assay: Diastolic blood pressure pre- and post-treatment, 8 week EGCG study stratified by COMT genotype
Type: in vivo, human
Conditions: 800 mg/day EGCG, 8 weeks
Excerpt: This was a double blind, single centre, randomised and parallel design study. A total of 95 male participants were recruited on to the study using the following criteria: • healthy (no significant history or current disease or medication) • non-diabetic • non-smokers • aged 40-65 years • Body Mass Index >28 <38 The study population were randomly assigned to one of two treatment groups. Each group was balanced for age and insulin resistance (homeostatic model of insulin resistance HOMAir). HOMAir was measured from mean fasting plasma glucose values as described by Mathews et al, Diabetologia (1985), 28, 412-419. 75 subjects consented to genotype analysis for the COMT polymorphism rs4680. The active treatment was 800 mg/day EGCG and the placebo treatment 800 mg/day lactose. Treatments were administered twice daily with food for 8 weeks, one 400 mg capsule in the morning and one 400 mg capsule in the evening. The diastolic blood pressure was measured pre- and post-treatment. During the three days before pre- and post-treatment study visits, participants refrained from exercise, alcohol and ate their normal diet which consisted of at least 150 g carbohydrates. Blood pressure was measured manually on the upper arm using a sphygmomanometer (UA-787, A and D Medical). Three measurements were taken at 5 minute intervals whilst participants rested in a semi-recumbent position and with participants rested for at least 5 minutes before the first measurement. All three measurements were used to derive mean blood pressure values. Non-smoking status and alcohol abstinence were verified using Micro CO meter (Micro Medical Ltd) and AlcoMate Pro (AK Solutions) monitors, respectively. All equipment was calibrated before use. The data was stratified based on the derived COMT genotype and analysed. For each treatment group and genotype subset the mean and standard deviation for the change from baseline to endpoint was calculated. Paired t-tests were used to assess whether the change from baseline was statistically significant (p<0.05).

`O=C(O[C@@H]1Cc2c(O)cc(O)cc2O[C@@H]1c1cc(O)c(O)c(O)c1)c1cc(O)c(O)c(O)c1` [EGCG, epigallocatechin gallate] was tested, and the “diastolic blood pressure, change compared to baseline” value (“diastolic blood pressure, change” below) (AA (low activity) COMT genotype, paired t-test p=0.036) was “Statistically significant reductions”, the “LSMean change from baseline in diastolic blood pressure, controlled for baseline” value (from here on “LSMean change from baseline”) (AA COMT genotype, p=0.044) was “statistically significant reduction” and the “diastolic blood pressure, change” value (AG (intermediate activity) COMT genotype, paired t-test p=0.006) was “Statistically significant reductions”. For the same compound, the “LSMean change from baseline” value (AG COMT genotype, p=0.012) was “statistically significant reduction”, the “diastolic blood pressure, change” value (GG (high activity) COMT genotype, paired t-test p=0.647) was “not statistically significant” and the “LSMean change from baseline” value (GG COMT genotype) was “not the GG group”.
